These results are taken from patent US7807691B2, “Substituted N-arylpyrrolidines as selective androgen receptor modulators” (Eli Lilly and Company, priority 2005, dated 2010).

Structures are written as SMILES.

The target in assay [1] is T1, human androgen receptor (AR) (Homo sapiens, UniProt P10275).
T1 construct: expressed in transfected cells; host or cells: mouse myoblast C2C12 cells, transiently co-transfected with FuGENE
T1 sequence (P10275 1-920): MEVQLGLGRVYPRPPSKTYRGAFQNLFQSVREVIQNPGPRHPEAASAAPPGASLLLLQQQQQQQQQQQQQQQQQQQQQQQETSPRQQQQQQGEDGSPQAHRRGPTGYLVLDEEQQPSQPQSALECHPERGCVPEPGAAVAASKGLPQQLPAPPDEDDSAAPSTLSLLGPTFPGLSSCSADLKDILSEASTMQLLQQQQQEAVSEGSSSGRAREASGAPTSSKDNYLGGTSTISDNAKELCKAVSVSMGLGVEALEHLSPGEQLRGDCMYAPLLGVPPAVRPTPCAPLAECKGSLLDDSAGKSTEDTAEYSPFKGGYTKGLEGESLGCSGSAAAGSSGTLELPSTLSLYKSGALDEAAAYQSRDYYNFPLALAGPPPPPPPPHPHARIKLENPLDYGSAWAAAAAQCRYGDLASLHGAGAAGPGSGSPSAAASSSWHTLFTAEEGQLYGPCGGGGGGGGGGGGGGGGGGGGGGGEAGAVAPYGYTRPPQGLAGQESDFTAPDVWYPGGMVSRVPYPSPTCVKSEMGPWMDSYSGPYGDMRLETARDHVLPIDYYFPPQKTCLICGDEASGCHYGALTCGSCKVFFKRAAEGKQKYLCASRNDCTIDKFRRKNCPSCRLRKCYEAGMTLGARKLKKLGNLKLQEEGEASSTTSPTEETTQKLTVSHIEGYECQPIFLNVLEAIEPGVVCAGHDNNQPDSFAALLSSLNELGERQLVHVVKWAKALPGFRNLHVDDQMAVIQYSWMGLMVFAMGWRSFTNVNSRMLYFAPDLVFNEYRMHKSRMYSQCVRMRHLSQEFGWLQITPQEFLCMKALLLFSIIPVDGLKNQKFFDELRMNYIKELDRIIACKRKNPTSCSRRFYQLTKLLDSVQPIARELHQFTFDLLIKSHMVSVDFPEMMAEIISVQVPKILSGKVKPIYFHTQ
Description: C2C12 AR/ARE reporter assay. The assay is classed as cell-based. Conditions: average. Here is the method: As an indicator of agonist activity in muscle tissue, the C2C12 AR/ARE reporter assay is performed. Briefly, mouse myoblast C2C12 cells are co-transfected using FuGENE™. […] Cells are transfected in T150 cm^2 flasks in DMEM media with 4% or 10% Fetal Bovine Serum (FBS). After a 5 hour incubation, transfected cells are trypsinized, plated in 96 well dishes in DMEM media containing 10% charcoal-stripped FBS, incubated for 2 h and then exposed to various concentrations of test compounds ranging from about 0.01 nM to 10 μM. After 48 h of incubations with compounds, cells are lysed and luciferase activity is determined using standard techniques. Data is fit to a 4 parameter-fit logistics to determine EC50 values. The % efficacy is determined versus maximum stimulation obtained with 10 nM methyltrienolone. […]

The target in assay [2] is T2, human AR (androgen receptor) (Homo sapiens, UniProt P10275).
T2 construct: expressed in transfected cells; host or cells: 293 cells (293-AR lysate)
T2 sequence (P10275 1-920): T1 sequence (P10275 1-920)
Description: Steroid hormone nuclear receptor binding assay (AR binding). As to conditions: AR binding Ki (nM), 293-AR cell lysate, 3H-methyltrienolone competition. The protocol:
Cell lysates from 293 cells overexpressing human GR (glucocorticoid receptor), AR (androgen receptor), MR (mineralocorticoid receptor) or PR (progesterone receptor) are used for competition binding assays to determine Ki values for test compounds. Briefly, competition binding assays are run in a buffer containing 20 mM Hepes, pH 7.6, 0.2 mM EDTA, 75 mM NaCl, 1.5 mM MgCl2, 20% glycerol, 20 mM sodium molybdate, 0.2 mM DTT, 20 ug/ml aprotinin and 20 ug/ml leupeptin, using either 0.3 nM ^3H-dexamethasone for GR binding, 0.36 nM ^3H-methyltrienolone for AR binding, 0.25 nM ^3H-aldosterone for MR binding, or 0.29 nM ^3H-methyltrienolone for PR binding, and either 20 ug 293-GR lysate, 22 ug 293-AR lysate, 20 ug 293-MR lysate or 40 ug 293-PR lysate per well. Competing compounds are added at various concentrations ranging from about 0.01 nM to 10 μM. Non-specific binding is determined in the presence of 500 nM dexamethasone for GR binding, 500 nM aldosterone for MR binding, or 500 nM methyltrienolone for AR and PR binding. The binding reaction (140 μl) is incubated for overnight at 4° C., then 70 μl of cold charcoal-dextran buffer (containing per 50 ml of assay buffer, 0.75 g of charcoal and 0.25 g of dextran) is added to each reaction. Plates are mixed 8 minutes on an orbital shaker at 4° C. Plates are then centrifuged at 3,000 rpm at 4° C. for 10 minutes. An aliquot of 120 μl of the mix is transferred to another 96-well plate and 175 μl of Wallac Optiphase “Hisafe 3” scintillation fluid is added to each well. Plates are sealed and shaken vigorously on an orbital shaker. After an incubation of 2 hrs, plates are read in a Wallac Microbeta counter. The data is used to calculate an IC50 and % Inhibition at 10 μM. The Kd for ^3H-dexamethasone for GR binding, ^3H-methyltrienolone for AR binding, ^3H-aldosterone for MR binding, or ^3H-methyltrienolone for PR binding, is determined by saturation binding. The IC50 values for test compounds are converted to Ki using Cheng-Prusoff equation and the Kd determined by saturation binding assay.
Binding assay protocols for steroid hormone nuclear receptors similar to those described above can be readily designed by the ordinarily skilled artisan.

For assay [3], the system named is castrated male ICR mice. Description: In vivo mouse model of efficacy and selectivity (castrated mice, tissue wet weights). Here is the method: Male ICR mice (8 weeks old) are castrated according to approved procedures (Taconic, N.Y.) and allowed to waste for eight weeks. Age-matched sham-operated mice are also prepared. (Sham-operated mice are animals that have been exposed to the same surgical procedures as castrated animals except their testes are not removed.) Animals are housed in a temperature-controlled room (24° C.) with a reversed 12 hour light/dark cycle (dark 10:00/22:00) and water and food are available ad libitum.
Test compounds are administered to the animals using conventional vehicles. For example, for oral dosing 1% Sodium Carboxymethylcellulose (CMC)+0.25% Tween 80 in sterile H2O can be used for oral formulation and 6% Ethyl-alcohol (EtOH)+94% cyclodexitrane (CDX) can be used for subcutaneous injections. Castrated mice treated with Testosteron Enanthate (TE) (10 mg/kg/d) are used as a treatment positive control whereas castrated mice treated only with vehicle are used as treatment negative control. In addition, sham-operated mice treated with vehicle only are used as control for the surgical method.
Test animals are dosed over a two week timeframe, orally or subcutaneously, with, for example, 0.3, 1, 3, 10 or 30 mg/kg/day of a compound of the present invention. After the two-week treatment, as an indicator of activity the wet weight of the Levator Ani muscle in the test group is determined and compared to the weight in the castrated, vehicle-only control group. The percent efficacy is then calculated as follows: (Wet weight in treatment group/Wet weight in control group)×100 As an indicator of tissue selective activity, the wet weight of the seminal vesicle from test animals is similarly compared to the weight of the seminal vesicles from the castrated, vehicle-only group. In addition, a comparison of the wet weight of the prostate glands from the drug-treated group, to the wet weight of the prostate glands removed from the castrated, vehicle-only group, may also be used as an indicator of tissue selective activity.
Table II (see below) provides % efficacy data for a select sample of exemplified compounds of the present invention in an animal model essentially as described above. Animal models of efficacy and selectivity similar to those described above can be readily designed and performed by the ordinarily skilled artisan, for example, Eisenberg and Gilbert, J Pharmacol Exp Ther. 1950, 99(1), 38-44, provides an alternative rat model that may be employed to show in vivo efficacy.)

By EC50 is commonly meant the concentration needed to bring the measured effect to its halfway point. For orientation: Ki means the dissociation constant of the complex between target and ligand, obtained from inhibition or displacement.

`Cc1c(N2CCCC2c2cccnc2)ccc(C#N)c1Cl` (centres unmarked) [Example 9]: the Emax in assay [1] (C2C12, read-out: C2C12 % Efficacy, versus maximum stimulation obtained with 10 nM methyltrienolone) came out at 90.7%. Also, in assay [1] (C2C12 EC50(nM), mouse myoblast C2C12 cells, luciferase reporter, 48 h), the EC50 worked out at 2.6 nM. The inhibition constant (Ki) in assay [2] amounted to 1.3 nM. The “% Efficacy: (ANOVA, p < 0.05)” value in assay [3] (Levator Ani muscle wet weight vs castrated vehicle-only control x100, 10 mg/kg/d, sc, two weeks) stood at 186%. Also, in assay [3] (tissue selectivity indicator, castrated mice), the “Seminal vesicle and/or prostate weight gain” value is “no weight gain”.
